The nature of data set [1]: activity coefficient (dimensionless); of the first substance listed, at infinite dilution; xn = mol fraction of the nth substance listed. The conditions noted are these: 101.33 kPa, Liquid, Chromatography, x1 = 0.
The conditions of data set [2]: 101.33 kPa, Liquid, Vibrating tube method.

± gives the expanded uncertainty stated by the source.

Consider `CCCC(=O)OC` [methyl butanoate] + CCCCCCCCCCCCCC[P+](CCCCCC)(CCCCCC)CCCCCC.N#CC(=C=[N-])C#N, for which the activity coefficient in data set [1] (328.15 K) came out at 0.652 ± 0.045; in data set [1] (338.15 K) it was 0.683 ± 0.046; in data set [1] (348.15 K), 0.709 ± 0.047; in data set [1] (358.15 K), 0.739 ± 0.049; in data set [1] (368.15 K) it was 0.764 ± 0.05.

Consider `CCOCC` [diethyl ether] + CCCCCCCCCCCCCC[P+](CCCCCC)(CCCCCC)CCCCCC.N#CC(=C=[N-])C#N, for which the activity coefficient in data set [1] (328.15 K) turned out to be 0.943 ± 0.059; in data set [1] (338.15 K), 0.981 ± 0.062; in data set [1] (348.15 K), 1.01 ± 0.06; in data set [1] (358.15 K), 1.05 ± 0.07; in data set [1] (368.15 K) it was 1.08 ± 0.07.

Turning to `CO` [methanol] + CCCCCCCCCCCCCC[P+](CCCCCC)(CCCCCC)CCCCCC.N#CC(=C=[N-])C#N, the activity coefficient in data set [1] (328.15 K) is 0.39 ± 0.034; in data set [1] (338.15 K), 0.399 ± 0.034; in data set [1] (348.15 K), 0.408 ± 0.034; in data set [1] (358.15 K) it was 0.417 ± 0.035; in data set [1] (368.15 K), 0.424 ± 0.035.

`c1ccncc1` [pyridine] + CCCCCCCCCCCCCC[P+](CCCCCC)(CCCCCC)CCCCCC.N#CC(=C=[N-])C#N: the activity coefficient in data set [1] (338.15 K) amounted to 0.401 ± 0.034; in data set [1] (348.15 K), 0.413 ± 0.034; in data set [1] (358.15 K) it was 0.425 ± 0.035; in data set [1] (368.15 K), 0.438 ± 0.035.

As for `C=CCCCC` [hex-1-ene] + CCCCCCCCCCCCCC[P+](CCCCCC)(CCCCCC)CCCCCC.N#CC(=C=[N-])C#N, the activity coefficient in data set [1] (328.15 K) was 1.39 ± 0.09; in data set [1] (338.15 K), 1.42 ± 0.09; in data set [1] (348.15 K), 1.43 ± 0.09; in data set [1] (358.15 K), 1.46 ± 0.1; in data set [1] (368.15 K), 1.48 ± 0.1.

Turning to `CC(C)O` [propan-2-ol] + CCCCCCCCCCCCCC[P+](CCCCCC)(CCCCCC)CCCCCC.N#CC(=C=[N-])C#N, the activity coefficient in data set [1] (328.15 K) turned out to be 0.503 ± 0.038; in data set [1] (338.15 K), 0.507 ± 0.038; in data set [1] (348.15 K), 0.51 ± 0.038; in data set [1] (358.15 K), 0.514 ± 0.038; in data set [1] (368.15 K), 0.516 ± 0.038.

For `C=CCCCCCC` [oct-1-ene] + CCCCCCCCCCCCCC[P+](CCCCCC)(CCCCCC)CCCCCC.N#CC(=C=[N-])C#N, the activity coefficient stood at 1.81 ± 0.12 in data set [1] (328.15 K); 1.85 ± 0.12 in data set [1] (338.15 K); 1.88 ± 0.13 in data set [1] (348.15 K); 1.91 ± 0.13 in data set [1] (358.15 K); 1.94 ± 0.13 in data set [1] (368.15 K).

`CC(C)CC(C)(C)C` [2,2,4-trimethylpentane] + CCCCCCCCCCCCCC[P+](CCCCCC)(CCCCCC)CCCCCC.N#CC(=C=[N-])C#N: the activity coefficient is 2.22 ± 0.15 in data set [1] (328.15 K); 2.25 ± 0.15 in data set [1] (338.15 K); 2.28 ± 0.16 in data set [1] (348.15 K); 2.31 ± 0.16 in data set [1] (358.15 K); 2.33 ± 0.16 in data set [1] (368.15 K).

In the case of `CCc1ccccc1` [ethylbenzene] + CCCCCCCCCCCCCC[P+](CCCCCC)(CCCCCC)CCCCCC.N#CC(=C=[N-])C#N, the activity coefficient in data set [1] (328.15 K) amounted to 0.701 ± 0.047; in data set [1] (338.15 K) it was 0.729 ± 0.048; in data set [1] (348.15 K), 0.756 ± 0.05; in data set [1] (358.15 K) it was 0.783 ± 0.051; in data set [1] (368.15 K) it was 0.805 ± 0.052.

In the case of `CCCCCCCCCCCCCC[P+](CCCCCC)(CCCCCC)CCCCCC.N#CC(=C=[N-])C#N` [trihexyltetradecylphosphonium tricyanomethanide], the mass density in data set [2] (298.15 K) was determined as 900.77 ± 3.7 kg/m3; in data set [2] (308.15 K), 894.91 ± 3.7 kg/m3; in data set [2] (318.15 K) it was 889.05 ± 3.7 kg/m3; in data set [2] (328.15 K) it was 883.23 ± 3.7 kg/m3; in data set [2] (338.15 K), 877.43 ± 3.7 kg/m3; in data set [2] (348.15 K), 871.66 ± 3.7 kg/m3. Besides, the mass density in data set [2] (358.15 K) was 865.92 ± 3.6 kg/m3; in data set [2] (368.15 K), 860.2 ± 3.6 kg/m3.

Turning to `CCCCCCCC` [octane] + CCCCCCCCCCCCCC[P+](CCCCCC)(CCCCCC)CCCCCC.N#CC(=C=[N-])C#N, the activity coefficient is 2.35 ± 0.16 in data set [1] (328.15 K); 2.36 ± 0.16 in data set [1] (338.15 K); 2.37 ± 0.16 in data set [1] (348.15 K); 2.38 ± 0.16 in data set [1] (358.15 K); 2.39 ± 0.16 in data set [1] (368.15 K).

(Values after the NIST ThermoML archive (doi:10.1016/j.jct.2018.01.003).)
